Assay results as given in paper PMC7313430, “Heme-Dependent ER Stress Apoptosis: A Mechanism for the Selective Toxicity of the Dihydroartemisinin, NSC735847, in Colorectal Cancer Cells” (Frontiers in Oncology, 2020).

Columns and labels:
HT29 cells = experiment: MTS cell viability assay, colon cancer cells HT29; type: cell-based, human; settings: for effect of pretreatment on NSC735847-mediated cell death: HT29, MTS, pretreatment with the agent, then NSC735847 (10 μM; 5 μM for HTF) 24 h; for IC50: Homo sapiens, HT-29, MTS viability, 24 h treatment; for selective cytotoxicity toward colon cancer cells vs FHC: HT-29/HCT-116 compared to FHC
Procedure: (§1) The human colon cancer cell lines HT29 and HCT116 were cultured in McCoy's 5A medium (Sigma Aldrich, St. Louis, MO) containing 10% heat-inactivated fetal bovine serum (FBS), penicillin (100 units/ml), and streptomycin (100 μg/ml). The non-tumorigenic colon cell line, FHC, was cultured in DMEM: F12 (1:1) medium supplemented with 10% heat inactivated FBS, 25 mM HEPES (Thermo Fisher Scientific Inc., IL), 10 ng/ml cholera toxin (Sigma Aldrich, St. Louis, MO), 0.005 mg/ml insulin (Thermo Fisher Scientific Inc., IL), 0.005 mg/ml, transferrin (Sigma Aldrich, St. Louis, MO), 100 ng/ml hydrocortisone (Sigma Aldrich, St. Louis, MO), 20 ng/mL human recombinant epidermal growth factor (Thermo Fisher Scientific Inc., IL), 100 units/ml penicillin, and 100 μg/ml streptomycin.
(§2) Cells were cultured in 96-well-plates for 48 h before treatment. Serum-free media containing different agents was added to the cells at the concentration and time period described in the figure legend. MTS reagent (Promega, Madison, WI) was then added to each well and the absorbance was measured at 495 nm as directed by the manufacturer. In the presence of MTS reagent, the absorbance reading is proportional to the number of viable cells. The half-maximal inhibitory concentration (IC50) of the tested compounds is the concentration that reduces the viability of cells by 50%. IC50 was calculated after 24 h of treatment ([30], [31]) as described previously ([32]–[34]) from dose-response curves (log drug concentration vs. percentage viability from untreated cells) generated by non-linear regression analysis with GraphPad Prism 5 software (GraphPad Software, San Diego, California).

HCT116 cells = experiment: MTS cell viability assay, colon cancer cells HCT116; type: cell-based, human; settings: for IC50: Homo sapiens, HCT-116, MTS viability, 24 h treatment; for cytotoxic activity against HCT-116 cells: 3.1-25 μM
Procedure: as §1, §2

FHC cells = experiment: MTS cell viability assay, non-tumorigenic colon cells; type: cell-based; settings: Homo sapiens, 24 h treatment
Procedure: as §1, §2

[1] = tested on: caspase 3/7 activity in HT29 cells; experiment: Caspase-Glo 3/7 activity assay in HT29; type: cell-based, human; settings: for tumor selectivity of apoptosis induction (caspase 3/7, words): 16 h, HT29 compared to HCT-116 and FHC; for effect of pretreatment on NSC735847-induced caspase 3/7 activity: HT29, pretreatment 1 h (GSK 10 μM, SAL 50 μM), then 10 μM NSC735847 16 h
Procedure: The cells were plated in white-walled 96-well-plates and then they were cultured at 37°C for 48 h. Serum-free culture medium containing the appropriate concentration of different agents was added to the cells for the indicated period of time. Caspase-Glo 3/7 reagent (Promega, Madison, WI) was added to each well and luminescence was detected as directed by the manufacturer. The Caspase-Glo 3/7 kit measures the activity of the executioner caspases 3 and 7 using the luminogenic substrate (Z-DEVD-aminoluciferin) as substrate.

[2] = tested on: P-PERK, P-eIF2α, CHOP10, PARP, caspase-3, ferritin in HT29 cells; experiment: Western blot of ER stress and apoptosis proteins in HT29; type: cell-based, human; settings: for effect of pretreatment on NSC735847-induced CHOP10 expression: HT29, pretreatment (GSK 10 μM, salubrinal 50 μM, SA 10 mM), then 10 μM NSC735847 8 h
Procedure: Western blot analysis was conducted as described previously ([35]). Briefly, the cells were cultured in 100 mm dishes for 48 h before treatment. The cells were then treated as described in the figure legends. For vehicle-treated samples, DMSO was added to serum-free culture medium at a maximum concentration of 0.1% (v/v). After experimentation, the cells were washed twice with phosphate buffer saline (PBS) and then 100 μl of Triton lysis buffer [25 mM HEPES, 100 mM NaCl, 1 mM EDTA, 10% (v/v) glycerol, 1% (v/v) Triton X-100], containing protease and […] inhibitors, was added to the cells. Protein concentrations were determined by using BCA reagents (Thermo Fisher Scientific Inc., IL). Equal concentrations of each sample were loaded onto SDS–PAGE gels and protein bands transferred to nitrocellulose membranes using semi-dry transfer cells (TRANS-BLOTSD; Bio-Rad Laboratories, Hercules, CA). The membranes were incubated for 2 h at room temperature in Odyssey blocking buffer (LI-COR Biosciences, Lincoln, NE). Membranes were then incubated overnight at 4C with primary antibody followed by 1 h of incubation at room temperature with secondary antibody. All primary antibodies were used at a dilution of 1:1,000 except anti-GAPDH and anti-CHOP10 antibodies which were used at 1:10,000 and 1:500 dilutions, respectively. All secondary antibodies were used at a dilution of 1:15,000. Protein bands were visualized using Odyssey® CLx digital fluorescence imaging system (LI-COR, Lincoln, Nebraska). Band intensities were quantified by using ImageJ software ([36]).

[3] = tested on: reactive oxygen species in HT29 cells; experiment: Oxidative stress measurement with CM-H2DCFDA (DCF); type: cell-based, human; settings: HT29, 0.25 mM Trolox 2 h, then 10 μM NSC735847 8 h
Procedure: Oxidative stress was measured in cultured cells by using the probe, chloromethyl-2′,7′ dichlorodihydrofluorescein diacetate (CM-H2DCFDA or DCF) purchased from Life Technologies (Grand Island, NY). […] The cells were loaded with 5 μM DCF in phenol red-free, serum-free medium for 30 min and then the cells were treated with the appropriate drug for the indicated period of time. The cells were then trypsinized and resuspended in serum-containing, phenol red-free medium. The fluorescence of DCF was measured using an Accuri C6 flow cytometer (BD Accuri Cytometers, Ann Arbor, MI) at an excitation wavelength of 488 and emission of 533 ± 30 nm.

[4] = MTS, 24 h, single agents or combinations

`O=C1[O][Pt]2([NH][C@@H]3CCCC[C@H]3[NH]2)[O]C1=O` [OX, oxaliplatin, reference compound] was tested, and the “cell death / survival of HT29 cells” value (HT29 cells; [4]) was “induced death in a concentration-dependent manner” and the “cell death / survival of HCT116 cells” value (HCT116 cells; [4]) was “induced death in a concentration-dependent manner”.

With `O=C(CC(c1ccccc1)c1ccccc1)Cn1ccnc1` [QC-308, reference compound] the “effect of pretreatment on NSC735847-mediated cell death” value (HT29 cells) was “increased the cytotoxicity of NSC735847”.

In the case of `CC1CCC2C(C)C(OCC(COC3OC4OC5(C)CCC6C(C)CCC(C3C)C46OO5)NNC(=O)c3ccncc3)OC3OC4(C)CCC1C32OO4` (stereo not drawn) [compound (2)], the IC50 (FHC cells) is reported as 23.2 ± 1.04 µM, the IC50 (HT29 cells) is reported as 19.6 ± 1.06 µM and the “selective cytotoxicity toward colon cancer cells vs FHC” value (HT29 cells; MTS, 24 h) is reported as “not selectively cytotoxic toward either colon cancer cell line”. For the same compound, the IC50 (HCT116 cells) was 22.1 ± 1.06 µM and the “tumor selectivity of apoptosis induction (caspase 3/7, words)” value (shortened to “tumor selectivity of apoptosis induction”) [1] was “increase in apoptosis in HT29 compared to HCT-116 and FHC cells”.

With `CC1CCC2C(C)C(OCC(COC3OC4OC5(C)CCC6C(C)CCC(C3C)C46OO5)N3CCOCC3)OC3OC4(C)CCC1C32OO4` (stereo not drawn) [compound (1)] the IC50 (FHC cells) was greater than 25 µM, the IC50 (HT29 cells) was greater than 25 µM and the “selective cytotoxicity toward colon cancer cells vs FHC” value (HT29 cells; MTS, 24 h) was “not selectively cytotoxic toward either colon cancer cell line”. The IC50 (HCT116 cells) was greater than 25 µM and the “tumor selectivity of apoptosis induction” value [1] was “did not exhibit tumor selectivity”.

With `CC(=O)CC(=O)CCC(=O)O` [succinylacetone, reference compound] the “effect of pretreatment on NSC735847-mediated cell death” value (HT29 cells) was “rescued the cells from the cytotoxic effects of NSC735847” and the “effect of pretreatment on NSC735847-induced CHOP10 expression” value [2] was “blunted NSC735847-induced CHOP10 expression”.

With `CC1CCC2C(C)C(OCC(COC3OC4OC5(C)CCC6C(C)CCC(C3C)C46OO5)N3CCCCC3)OC3OC4(C)CCC1C32OO4` (stereo not drawn) [(4)] the IC50 (FHC cells) was greater than 25 µM, the IC50 (HT29 cells) was greater than 25 µM and the “selective cytotoxicity toward colon cancer cells vs FHC” value (HT29 cells; MTS, 24 h) was “more cytotoxic toward HT-29 than FHC cells”. The IC50 (HCT116 cells) was greater than 25 µM, the “cytotoxic activity against HCT-116 cells” value (HCT116 cells; MTS, 24 h) was “inactive” and the “tumor selectivity of apoptosis induction” value [1] was “preferentially induced apoptosis in HT-29 compared to FHC cells”.

`Cn1cc(-c2ccc3c(c2)CCN3C(=O)Cc2cccc(C(F)(F)F)c2)c2c(N)ncnc21` [GSK2606414, 7-methyl-5-(1-{[3-(trifluoromethyl)phenyl]acetyl}-2,3-dihydro-1H-indol-5-yl)-7H-p yrrolo[2,3-d]pyrimidin-4-amine, reference compound] was tested, and the “effect of pretreatment on NSC735847-mediated cell death” value (HT29 cells) was “suppressed NSC735847-mediated cell death”, the “effect of pretreatment on NSC735847-induced caspase 3/7 activity” value [1] was “inhibited caspase 3/7 activity” and the “effect of pretreatment on NSC735847-induced PERK phosphorylation” value ([2]; HT29, 10 μM pretreatment 1 h, then 10 μM NSC735847 1 h) was “decreased the phosphorylation of PERK”. For the same compound, the “effect of pretreatment on NSC735847-induced CHOP10 expression” value [2] was “decreased”.

With `CC1CCC2C(C)C(OCC(COC3OC4OC5(C)CCC6C(C)CCC(C3C)C46OO5)NCc3ccccc3)OC3OC4(C)CCC1C32OO4` (stereo not drawn) [(5)] the IC50 (FHC cells) was greater than 25 µM, the IC50 (HT29 cells) was 15.2 ± 1.12 µM and the “selective cytotoxicity toward colon cancer cells vs FHC” value (HT29 cells; MTS, 24 h) was “more cytotoxic toward HT-29 than FHC cells”. The IC50 (HCT116 cells) was greater than 25 µM, the “cytotoxic activity against HCT-116 cells” value (HCT116 cells; MTS, 24 h) was “inactive” and the “tumor selectivity of apoptosis induction” value [1] was “preferentially induced apoptosis in HT-29 compared to FHC cells”.

`Cc1c(C)c2c(c(C)c1O)CCC(C)(C(=O)O)O2` (stereo not drawn) [Trolox, reference compound] was tested, and the “effect of pretreatment on NSC735847-mediated cell death” value (HT29 cells) was “did not rescue the cells from NSC735847-induced cytotoxicity” and the “effect of pretreatment on NSC735847-induced oxidative stress” value [3] was “significant reduction in oxidative stress”.

For HTF: iron-loaded transferrin molecule, the “effect of pretreatment on NSC735847-mediated cell death” value (HT29 cells) was “did not enhance the killing effect of NSC735847”.

In the case of `CC(=O)N(O)CCCCCNC(=O)CCC(=O)N(O)CCCCCNC(=O)CCC(=O)N(O)CCCCCN` [DFO, deferoxamine, reference compound], the “effect of pretreatment on NSC735847-mediated cell death” value (HT29 cells) is reported as “did not prevent NSC735847-mediated cell death” and the “effect of pretreatment on NSC735847-mediated ferritin protein expression” value ([2]; HT29, 100 μM DFO 4 h, then 10 μM NSC735847 24 h) is reported as “inhibited NSC735847-mediated ferritin expression”.

`O=C(/C=C/c1ccccc1)NC(NC(=S)Nc1cccc2cccnc12)C(Cl)(Cl)Cl` (stereo not drawn) [salubrinal, reference compound] was tested, and the “effect of pretreatment on NSC735847-mediated cell death” value (HT29 cells) was “blocked”, the “effect of pretreatment on NSC735847-induced caspase 3/7 activity” value [1] was “blocked” and the “effect of pretreatment on NSC735847-induced CHOP10 expression” value [2] was “blocked CHOP10 expression”.
